Data from PubChem BioAssay (NCI).
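Interpolation was linear, between the two tested concentrations surrounding the appropriate level; five concentrations were tested over 48 hours in 96-well plates. Abbreviation: GI50, concentration required for 50% inhibition of growth. TGI is the concentration that stops growth completely.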

Key:
Test in all cases: inhibition of tumour cell growth, NCI panel, 48 h
[1] = system: 786-0 renal
[2] = system: A498 renal
[3] = system: A549 NSCLC
[4] = system: ACHN renal
[5] = system: BT-549 breast
[6] = system: CAKI-1 renal
[7] = system: CCRF-CEM leukemia
[8] = system: COLO 205 colon
[9] = system: DU-145 prostate
[10] = system: EKVX NSCLC
[11] = system: HCC-2998 colon
[12] = system: HCT-116 colon
[13] = system: HCT-15 colon
[14] = system: HL-60(TB) leukemia
[15] = system: HOP-62 NSCLC
[16] = system: HOP-92 NSCLC
[17] = system: HS 578T breast
[18] = system: HT29 colon
[19] = system: IGROV1 ovarian
[20] = system: K-562 leukemia
[21] = system: KM12 colon
[22] = system: LOX IMVI melanoma
[23] = system: M14 melanoma
[24] = system: MALME-3M melanoma
[25] = system: MCF7 breast
[26] = system: MDA-MB-231 breast
[27] = system: MDA-MB-435
[28] = system: MOLT-4 leukemia
[29] = system: NCI-H226 lung
[30] = system: NCI-H23 lung
[31] = system: NCI-H460 lung
[32] = system: NCI-H522 lung
[33] = system: NCI/ADR-RES ovarian
[34] = system: OVCAR-3 ovarian
[35] = system: OVCAR-4 ovarian
[36] = system: OVCAR-5 ovarian
[37] = system: OVCAR-8 ovarian
[38] = system: PC-3 prostate
[39] = system: RPMI-8226 leukemia
[40] = system: RXF 393 renal
[41] = system: SF-268 CNS
[42] = system: SF-295 CNS
[43] = system: SF-539 CNS
[44] = system: SK-MEL-2 melanoma
[45] = system: SK-MEL-28 melanoma
[46] = system: SK-MEL-5 melanoma
[47] = system: SK-OV-3 ovarian
[48] = system: SN12C renal
[49] = system: SNB-19 CNS
[50] = system: SNB-75 CNS
[51] = system: SR leukemia
[52] = system: SW-620 colon
[53] = system: T-47D breast
[54] = system: TK-10 renal
[55] = system: U251 CNS
[56] = system: UACC-257 melanoma
[57] = system: UACC-62 melanoma
[58] = system: UO-31 renal

COc1ccc(Nc2ncc(Br)c(NCCCNC(=O)C3CCC3)n2)cc1
GI50 [1]: 10.1 µM
TGI [1]: 47.1 µM
GI50 [2]: 12.3 µM
TGI [2]: 27.2 µM
GI50 [3]: 14.3 µM
TGI [3]: 37.8 µM
GI50 [4]: 13.5 µM
TGI [4]: > 100 µM
GI50 [5]: 3.62 µM
TGI [5]: 15.9 µM
GI50 [6]: 5.21 µM
TGI [6]: 31.6 µM
GI50 [7]: 4.49 µM
TGI [7]: 98.1 µM
GI50 [8]: 10.6 µM
TGI [8]: 30.8 µM
GI50 [9]: 20.5 µM
TGI [9]: > 100 µM
GI50 [10]: 20.5 µM
TGI [10]: 83.9 µM
GI50 [11]: 21.7 µM
TGI [11]: 58.1 µM
GI50 [12]: 8.31 µM
TGI [12]: 82.3 µM
GI50 [13]: 14.7 µM
TGI [13]: 62.5 µM
GI50 [14]: 5.59 µM
TGI [14]: 45.8 µM
GI50 [15]: 4.77 µM
TGI [15]: 44.8 µM
GI50 [16]: 5.58 µM
TGI [16]: 39.8 µM
GI50 [17]: 3.23 µM
TGI [17]: 9.2 µM
GI50 [18]: 18.7 µM
TGI [18]: 85.4 µM
GI50 [19]: 14.6 µM
TGI [19]: 44.5 µM
GI50 [20]: 9.27 µM
TGI [20]: > 100 µM
GI50 [21]: 8.06 µM
TGI [21]: > 100 µM
GI50 [22]: 4.06 µM
TGI [22]: 18.1 µM
GI50 [23]: 31.5 µM
TGI [23]: > 100 µM
GI50 [24]: 24.6 µM
TGI [24]: > 100 µM
GI50 [25]: 16.1 µM
TGI [25]: 67.5 µM
GI50 [26]: 5.06 µM
TGI [26]: 60.3 µM
GI50 [27]: 36.1 µM
TGI [27]: > 100 µM
GI50 [28]: 5.92 µM
TGI [28]: > 100 µM
GI50 [29]: 4.8 µM
TGI [29]: 37.7 µM
GI50 [30]: 16.6 µM
TGI [30]: 62.2 µM
GI50 [31]: 8.34 µM
TGI [31]: 31.5 µM
GI50 [32]: 24 µM
TGI [32]: > 100 µM
GI50 [33]: 19 µM
TGI [33]: 80.5 µM
GI50 [34]: 16.5 µM
TGI [34]: 48.5 µM
GI50 [35]: 11.3 µM
TGI [35]: 56 µM
GI50 [36]: 10.8 µM
TGI [36]: 40.2 µM
GI50 [37]: 21.1 µM
TGI [37]: > 100 µM
GI50 [38]: 14.5 µM
TGI [38]: > 100 µM
GI50 [39]: 14 µM
TGI [39]: 42.1 µM
GI50 [40]: 2.3 µM
TGI [40]: 8.56 µM
GI50 [41]: 4.78 µM
TGI [41]: 41.6 µM
GI50 [42]: 11 µM
TGI [42]: 89.4 µM
GI50 [43]: 3.69 µM
TGI [43]: 18.5 µM
GI50 [44]: 22.9 µM
TGI [44]: 55.7 µM
GI50 [45]: 33.4 µM
TGI [45]: > 100 µM
GI50 [46]: 13 µM
TGI [46]: 35.1 µM
GI50 [47]: 14.1 µM
TGI [47]: 36.6 µM
GI50 [48]: 5.45 µM
TGI [48]: 62.7 µM
GI50 [49]: 8.95 µM
TGI [49]: > 100 µM
GI50 [50]: 2.98 µM
TGI [50]: 12.1 µM
GI50 [51]: 4.34 µM
TGI [51]: 40.1 µM
GI50 [52]: 6.6 µM
TGI [52]: > 100 µM
GI50 [53]: 41.2 µM
TGI [53]: 98.7 µM
GI50 [54]: 5.46 µM
TGI [54]: 38.7 µM
GI50 [55]: 12.4 µM
TGI [55]: > 100 µM
GI50 [56]: 68.9 µM
TGI [56]: > 100 µM
GI50 [57]: 17.7 µM
TGI [57]: 36.3 µM
GI50 [58]: 2.55 µM
TGI [58]: 13.5 µM
